Measured values as given in the supplement of paper PMC10307832.

Key:
Assay in all cases: relative viability (nuclei count vs DMSO), 5 days (fraction); higher = more cells survive
[1] = compound: C=CCNC1=C2C[C@@H](C)C[C@H](OC)[C@H](O)[C@@H](C)/C=C(\C)[C@H](OC(N)=O)[C@@H](OC)/C=C\C=C(/C)C(=O)NC(=CC1=O)C2=O [17-AAG] + NC(=O)Nc1cc(-c2cccc(F)c2)sc1C(=O)N[C@H]1CCCNC1 [AZD7762] (partner 0.2 µM)
In short: (§1)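 Relative viability was taken as the ratio of nuclei in treated wells to nuclei in vehicle wells. Lung cancer cell lines in 1536-well plates received compounds by pin tool one day after seeding, either one drug alone or a fixed anchor-drug dose plus five library-drug doses (not always all listed) in √10 steps. Nuclei were counted on 4× images after 5 days of treatment, and values are medians of duplicate plates.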

[2] = compound: C=CCNC1=C2C[C@@H](C)C[C@H](OC)[C@H](O)[C@@H](C)/C=C(\C)[C@H](OC(N)=O)[C@@H](OC)/C=C\C=C(/C)C(=O)NC(=CC1=O)C2=O [17-AAG] + CC(=O)c1c(C)c2cnc(Nc3ccc(N4CCNCC4)cn3)nc2n(C2CCCC2)c1=O [Palbociclib] (partner 0.5 µM)
In short: as §1

[3] = compound: C=CCNC1=C2C[C@@H](C)C[C@H](OC)[C@H](O)[C@@H](C)/C=C(\C)[C@H](OC(N)=O)[C@@H](OC)/C=C\C=C(/C)C(=O)NC(=CC1=O)C2=O [17-AAG] + O=C(CCCCCCC(=O)Nc1ccccc1)NO [Vorinostat] (partner 1 µM)
In short: as §1

[4] = compound: C=CCNC1=C2C[C@@H](C)C[C@H](OC)[C@H](O)[C@@H](C)/C=C(\C)[C@H](OC(N)=O)[C@@H](OC)/C=C\C=C(/C)C(=O)NC(=CC1=O)C2=O [17-AAG] + C[C@@H](Oc1cc(-c2cnn(C3CCNCC3)c2)cnc1N)c1c(Cl)ccc(F)c1Cl [Crizotinib] (partner 1 µM)
In short: as §1

| Cell Line | relative viability ([1]; first compound 0.00128 µM) | relative viability ([1]; first compound 0.004048 µM) | relative viability ([1]; first compound 0.0128 µM) | relative viability ([1]; first compound 0.04048 µM) | relative viability ([1]; first compound 0.128 µM) | relative viability ([2]; first compound 0.00128 µM) | relative viability ([2]; first compound 0.004048 µM) | relative viability ([2]; first compound 0.0128 µM) | relative viability ([2]; first compound 0.04048 µM) | relative viability ([2]; first compound 0.128 µM) | relative viability ([3]; first compound 0.00128 µM) | relative viability ([3]; first compound 0.004048 µM) | relative viability ([3]; first compound 0.0128 µM) | relative viability ([3]; first compound 0.04048 µM) | relative viability ([3]; first compound 0.128 µM) | relative viability ([4]; first compound 0.00128 µM) | relative viability ([4]; first compound 0.0128 µM) | relative viability ([4]; first compound 0.04048 µM) | relative viability ([4]; first compound 0.128 µM) | relative viability ([4]; first compound 0.004048 µM) |
| --- | --- | --- | --- | --- | --- | --- | --- | --- | --- | --- | --- | --- | --- | --- | --- | --- | --- | --- | --- | --- |
| HCC-78 | 0.599 | 0.821 | 0.666 | 0.155 | 0.352 | 0.47 | 0.464 | 0.475 | 0.442 | 0.424 | 0.441 | 0.42 | 0.47 | 0.689 | 0.413 | 0.378 | 0.351 | 0.273 | 0.235 | – |
| HCC-366 | 0.281 | 0.402 | 0.045 | 0.0325 | 0.0323 | 0.415 | 0.361 | 0.126 | 0.0306 | 0.031 | 0.305 | 0.374 | 0.149 | 0.0397 | 0.0268 | 0.463 | 0.0283 | 0.018 | 0.0156 | 0.506 |
| HCC-827 | 0.216 | 0.238 | 0.163 | – | 0.164 | 0.47 | 0.463 | 0.499 | – | 0.325 | 0.963 | 0.864 | 0.833 | – | 0.863 | 0.941 | 0.943 | – | 0.754 | 0.91 |
| HOP-62 | 0.733 | 0.416 | 0.256 | 0.11 | 0.0928 | 0.465 | 0.451 | 0.403 | 0.268 | 0.273 | 0.687 | 0.563 | 0.452 | 0.141 | 0.083 | 0.938 | 1.02 | 0.935 | 0.248 | 1.04 |
| LC-2-ad | 0.841 | 0.835 | 0.714 | 0.297 | 0.161 | 0.553 | 0.53 | 0.494 | 0.486 | 0.172 | 0.701 | 0.719 | 0.732 | 0.318 | 0.182 | 0.452 | 0.527 | 0.278 | 0.171 | 0.448 |
| LCLC-97TM1 | 0.281 | 0.359 | 0.278 | 0.21 | 0.0815 | 0.264 | 0.213 | 0.199 | 0.251 | 0.209 | 0.848 | 0.668 | 0.634 | 0.44 | 0.0747 | 0.325 | 0.433 | 0.395 | 0.295 | 0.387 |
| LCLC-103H | 0.756 | 0.755 | 0.742 | 0.834 | 0.835 | 0.5 | 0.471 | 0.489 | 0.477 | 0.464 | 0.883 | 0.844 | 0.731 | 0.832 | 0.818 | 1.12 | 0.976 | 0.928 | 1.06 | 0.979 |
| LK-2 | 0.481 | 0.522 | 0.149 | 0.115 | 0.0799 | 0.849 | 0.64 | 0.644 | 0.236 | 0.0922 | 0.323 | 0.445 | 0.178 | 0.174 | 0.236 | 0.212 | 0.357 | 0.232 | 0.176 | 0.249 |
| LOU-NH91 | 0.765 | 0.71 | 0.444 | 0.382 | 0.347 | 0.537 | 0.51 | 0.463 | 0.349 | 0.394 | 0.86 | 0.735 | 0.547 | 0.482 | 0.336 | 0.666 | 0.516 | 0.365 | 0.353 | 0.624 |
| LU99A | 0.372 | 0.284 | 0.115 | 0.179 | 0.074 | 0.434 | 0.42 | 0.384 | 0.454 | 0.137 | 0.479 | 0.476 | 0.301 | 0.203 | 0.127 | 0.588 | 0.331 | 0.184 | 0.134 | 0.512 |
| LXF-289 | 1.09 | 1.1 | 0.617 | 0.151 | 0.0926 | 0.606 | 0.55 | 0.602 | 0.545 | 0.227 | 0.765 | 0.759 | 0.402 | 0.214 | 0.115 | 0.789 | 0.73 | 0.572 | 0.163 | 0.783 |
| NCI-H23 | 0.201 | 0.4 | 0.18 | 0.122 | 0.0996 | 0.503 | 0.456 | 0.292 | 0.192 | 0.14 | 0.635 | 0.373 | 0.344 | 0.129 | 0.116 | 0.426 | 0.403 | 0.155 | 0.123 | 0.5 |
| NCI-H322M | 0.633 | 0.415 | 0.405 | 0.382 | 0.413 | 0.463 | 0.511 | 0.468 | 0.425 | 0.366 | 0.987 | 1.15 | 0.569 | 0.383 | 0.482 | 0.811 | 0.979 | 0.65 | 0.442 | 0.92 |
| NCI-H358 | 0.522 | 0.381 | 0.132 | 0.142 | 0.139 | 0.171 | 0.0944 | 0.0747 | 0.0677 | 0.079 | 0.703 | 0.439 | 0.113 | 0.0837 | 0.0628 | 0.752 | 0.152 | 0.118 | 0.0862 | 0.268 |
| NCI-H441 | 1.07 | 1.02 | 0.669 | 0.118 | 0.108 | 0.283 | 0.166 | 0.108 | 0.116 | 0.107 | 0.968 | 0.996 | 0.617 | 0.128 | 0.121 | 0.804 | 0.462 | 0.292 | 0.0949 | 0.707 |
| NCI-H460 | 0.549 | 0.676 | 0.0907 | 0.0489 | 0.0524 | 0.31 | 0.117 | 0.016 | 0.0279 | 0.0159 | 0.733 | 0.41 | 0.0303 | 0.0238 | 0.0231 | 0.685 | 0.0433 | 0.0161 | 0.013 | 0.521 |
